This assay concerns the target T1, human C5a receptor (Homo sapiens, UniProt P21730).
T1 construct: expressed in transfected cells; alternatively isolated human neutrophils (endogenous receptor)
T1 sequence (P21730 1-350): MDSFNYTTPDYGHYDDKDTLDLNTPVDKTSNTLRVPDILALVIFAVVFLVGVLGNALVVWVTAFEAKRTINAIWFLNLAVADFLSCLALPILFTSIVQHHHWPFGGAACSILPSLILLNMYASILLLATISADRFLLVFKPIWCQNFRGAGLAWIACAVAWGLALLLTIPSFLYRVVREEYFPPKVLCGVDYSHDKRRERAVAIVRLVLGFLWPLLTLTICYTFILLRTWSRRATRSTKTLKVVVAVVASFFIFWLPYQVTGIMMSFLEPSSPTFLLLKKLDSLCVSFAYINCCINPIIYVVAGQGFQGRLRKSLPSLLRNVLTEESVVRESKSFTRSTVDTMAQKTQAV
Description: Inhibition of C5aR ligand binding (125I labeled C5a). The conditions noted are these: 125I labeled C5a binding to C5aR expressing cells (L1.2 C5aR cells or neutrophils). Here is the method: L1.2 cells (ATCC #HB-12624) were transfected with a mammalian expression vector constitutively expressing the human C5a receptor (Genbank accession # NM_001736). A stable cell line was produced by selection with G418 for the co-expressed resistance marker. These cells were cultured as a suspension in RPMI-1640 medium supplemented with 2 mM L-glutamine, 1.5 g/L sodium bicarbonate, 4.5 g/L glucose, 10 mM HEPES, 1 mM sodium pyruvate, and 10% FBS. Cells were grown under 5% CO2/95% air, 100% humidity at 37° C. and subcultured twice weekly at 1:6 (cells were cultured at a density range of 1×10^5 to 2×10^6 cells/mL) and harvested at 1×10^6 cells/mL. L1.2 C5aR cells express C5a receptor and can be used in C5aR ligand binding and functional assays.
Neutrophils were isolated from fresh human blood using density separation and centrifigation. Briefly, whole blood is incubated with equal parts 3% dextran and allowed to separate for 45 minutes. After separation, the top layer is then layered on top of 15 mls of Ficoll (15 mls of Ficoll for every 30 mls of blood suspension) and centrifuged for 30 minutes at 400×g with no brake. The pellet at the bottom of the tube is then isolated and resuspended into PharmLyse RBC Lysis Buffer (BD Biosciences, San Jose, Calif.) after which the sample is again centrifuged for 10 minutes at 400×g with brake. The remaining cell pellet is resuspended as appropriate and consists of isolated neutrophils.
C5aR expressing cells were centrifuged and resuspended in assay buffer (20 mM HEPES pH 7.1, 140 mM NaCl, 1 mM CaCl2, 5 mM MgCl2, and with 0.2% bovine serum albumin) to a concentration of 5×10^6 cells/mL for L1.2 C5aR cells and […]. Binding assays were set up as follows. 0.1 mL of cells (5×10^5 L1.2 C5aR cells/well or 1×10^5 neutrophils) was added to the assay plates containing the compounds, giving a final concentration of ˜2-10 μM each compound for screening (or part of a dose response for compound IC50 determinations). Then 0.1 mL of ^125I labeled C5a (obtained from Perkin Elmer Life Sciences, Boston, Mass.) diluted in assay buffer to a final concentration of ˜50 pM, yielding ˜30,000 cpm per well, was added (using ^125I labeled C5a with L1.2 C5aR cells and with neutrophils), the plates sealed and incubated for approximately 3 hours at 4° C. on a shaker platform. Reactions were aspirated onto GF/B glass filters pre-soaked in 0.3% polyethyleneimine (PEI) solution, on a vacuum cell harvester (Packard Instruments; Meriden, Conn.). Scintillation fluid (40 μl; Microscint 20, Packard Instruments) was added to each well, the plates were sealed and radioactivity measured in a Topcount scintillation counter (Packard Instruments). Control wells containing either diluent only (for total counts) or excess C5a (1 µg/mL, for non-specific binding) were used to calculate the percent of total inhibition for compound. The computer program Prism from GraphPad, Inc. (San Diego, Calif.) was used to calculate IC50 values. IC50 values are those concentrations required to reduce the binding of radiolabeled C5a to the receptor by 50%. (For further descriptions of ligand binding and other functional assays, see Dairaghi, et al., J. Biol. Chem. 274:21569-21574 (1999), Penfold, et al., Proc. Natl. Acad. Sci. USA. 96:9839-9844 (1999), and Dairaghi, et al, J. Biol. Chem. 272:28206-28209 (1997)).
To evaluate small organic molecules that prevent the C5a receptor from binding ligand, an assay was employed that detected radioactive ligand (i.e, C5a) binding to cells expressing C5aR on the cell surface (for example, L1.2 C5AR cells or isolated human neutrophils). For compounds that inhibited binding, whether competitive or not, fewer radioactive counts are observed when compared to uninhibited controls.
Equal numbers of cells were added to each well in the plate. The cells were then incubated with radiolabeled C5a. Unbound ligand was removed by washing the cells, and bound ligand was determined by quantifying radioactive counts. […]

Molecule `CC1=C(C(=O)OC2CCCC2)C(c2cccc(O)c2)C2=C(CC(c3ccc(C(F)(F)F)cc3)CC2=O)N1` (stereo not shown) [Compound 1.003] had an IC50 of under 1000 nM.

For the molecule `CC1=C(C(=O)OC2CCCC2)C(c2cccc(O)c2)C2=C(CC(c3ccc4ccccc4c3)CC2=O)N1` (stereo not shown) [Compound 1.006], the IC50 was under 1000 nM.

`CC1=C(C(=O)OC2CCCC2)C(c2cccc(O)c2)C2=C(CN(c3ccccc3)CC2=O)N1` (stereo not shown) [Compound 1.007] had an IC50 of 1000 to 10000 nM. The value for `CC1=C(C(=O)OC2CCCC2)C(c2cccc(O)c2)C2=C(CC(C3CCCCC3)CC2=O)N1` (stereo not shown) [Compound 1.004] was under 1000 nM; that for `CC(C)C1=C(C(=O)OC2CCCC2)C(c2cccc(O)c2)C2=C(CC(c3c(Cl)cncc3Cl)CC2=O)N1` (stereo not shown) [Compound 1.010] was 1000 to 10000 nM.

`O=C1CC(c2ccc3c(c2)OCO3)CC2=C1C(c1cccc(O)c1)C(C(=O)OC1CCCC1)=C(CC1CCCC1)N2` (stereo not shown) [Compound 1.009] gave an IC50 of under 1000 nM. `CC1=C(C(=O)OC2CCCC2)C(c2cccc(O)c2)C2=C(CC(c3ccc(C)c(F)c3)CC2=O)N1` (stereo not shown) [Compound 1.002] had an IC50 of under 1000 nM.

For `CCOC(=O)C1=C(CCC2CCCC2)NC2=C(C(=O)CC(c3c(C)cc(C)cc3C)C2)C1c1cccc2[nH]ccc12` (stereo not shown) [Compound 1.008], the IC50 was under 1000 nM. Next, `Cc1cc(C)c(C2CC(=O)C3=C(C2)NC(C2CC2)=C(C(=O)OC2CCCC2)C3c2cccc(O)c2)c(C)c1` (stereo not shown) [Compound 1.001]: under 1000 nM; `CC1=C(C(=O)OC2CCCC2)C(c2cccc(O)c2)C2=C(CC(c3ccc(-c4ccccc4)cc3)CC2=O)N1` (stereo not shown) [Compound 1.005]: 1000 to 10000 nM.

In general, IC50 refers to the concentration at which inhibition is half-maximal. Low values mean greater potency, high ones weaker potency.

Source of the values: patent US20070112015A1, “Substituted dihydropyridines and methods of use” (ChemoCentryx, Inc., priority 2005, published 2007).
